In patent publication US10408843B2, “Compositions and methods for detecting S-nitrosylation and S-sulfinylation” (The Regents of the University of Michigan, priority 2013, dated 2019):

Target: T1, Recombinant human GAPDH (Homo sapiens, UniProt P04406)
T1 construct: 6His; made in house; host or cells: E. coli BL21
Experiment: Labeling of recombinant GAPDH (in-gel fluorescence, LC-MS)
Type: biochemical
Details: biotin-thiosulfonate modified tryptic peptide
Protocol: FIG. 14. Profiling fluorescein-SO2H reactivity and selectivity on S-nitrosylated GAPDH. Recombinant human GAPDH was resuspended in 6 M urea/PBS, treated with 50 mM iodoacetamide for 30 minutes, and mixed with dimedone, ascorbate, peroxide or NO donor (5 minutes). Fluorescein-SO2H (500 μM) was then added to the GAPDH sample for 45 minutes. S-nitrosylated human GAPDH labeling increases upon incubation with the NO donor MAHMA-NONOate, and decreases following treatment with ascorbate. […] Fluorescein-SO2H labeling is unaffected by pre-incubation with peroxide or dimedone.
FIG. 15. Biotin-SO2H reacts with human GAPDH and forms a thiosulfonate. Recombinant human GADPH was labeled with biotin-SO2H for site-specific analysis of S-nitrosylation by high-resolution mass spectrometry.
Given the efficient and selective conjugation of sulfinic acids and nitrosothiols, recombinant human GAPDH were next purified for targeted analysis of S-sulfinylation with biotin-SO2H. […] Biotin-SO2H-labeled GAPDH protein was digested with trypsin and analyzed by high-resolution mass spectrometry, identifying a biotin-thiosulfonate modified peptide encompassing the GAPDH catalytic cysteine (FIG. 15). […] These studies confirm direct detection of native of S-sulfinylation by sulfinic acid probes for mass spectrometry analysis.
Purified human GAPDH was diluted to 0.2 mg/mL in phosphate buffered saline (pH 7.3), and treated with 20 mM iodoacetamide for 30 minutes. Next, the sample was treated with 100 μM biotin-SO2H. Purified human DJ-1 was diluted to 0.2 mg/mL in PBS, and incubated with 20 mM iodoacetamide to alkylated free thiols. Next, the sample was treated with 2 mM hydrogen peroxide for 20 minutes to promote Cys106 sulfinic acid formation. […] Eluted peptides were analyzed using a Waters Synapt G2-S HDMS time-of-flight mass spectrometer in positive mode. […] MS data was searched using Waters Protein Lynx Global Server v3.0 using the exact mass calculated for the cysteine thiosulfonate modification.

T1 sequence (P04406 whole entry): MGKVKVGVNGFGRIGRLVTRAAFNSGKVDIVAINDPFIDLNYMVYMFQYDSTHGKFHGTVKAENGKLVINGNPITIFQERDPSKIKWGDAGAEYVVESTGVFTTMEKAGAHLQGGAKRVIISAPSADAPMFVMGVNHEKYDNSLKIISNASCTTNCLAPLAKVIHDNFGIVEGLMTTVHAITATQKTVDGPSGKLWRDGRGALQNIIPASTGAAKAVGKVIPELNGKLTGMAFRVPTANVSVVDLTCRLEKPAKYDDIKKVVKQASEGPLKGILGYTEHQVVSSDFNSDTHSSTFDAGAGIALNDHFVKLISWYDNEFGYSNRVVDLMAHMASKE

O=C(CCCC[C@@H]1SC[C@@H]2NC(=O)N[C@@H]21)NCCS(=O)O [biotin-SO2H, 2-(5-((3aS,4S,6aR)-2-oxohexahydro-1H-thieno[3,4-d]imidazol-4-yl)pentanamido)ethanesulfinic Acid]
modified cysteine of GAPDH identified by MS/MS: Cys156
